Assay results reported in a melting point compilation (Tetko et al.; mined from patent text by program, amines drawn as free bases though some values may be those of a salt).

Compound | melting point
O=C(NN1CCN(C(=O)Cl)C1=O)OCc1ccccc1 | 102 to 105 °C
CCCCCCCC(=O)c1ccc(CCI)cc1 | 36.5 °C
CCCCCCCCCCCCCCCCCCOC(=O)C=CC(=O)OCC | 42 °C
CN(C)CCN(C(=O)N(C)C)c1ccc(N)cn1 | 118 to 119 °C
COc1ccc(Cc2c(-c3ccc(OC(F)F)c(OC4CC4)c3)[nH]c3cn[nH]c(=O)c23)cn1 | 220 to 221 °C
CCC12CCC3c4ccc(OC)cc4CCC3C1CCC2OCCO (stereo unspecified) | 131 to 132 °C
O=C(Nc1c(Cl)cncc1Cl)c1ccc(OC(F)F)c2oc3ccccc3c12 | 270 °C
Oc1ccc2c(c1O)OCC(c1ccccc1)C2 (stereo unspecified) | 138 °C
Cc1c(C(F)(F)C(F)(F)F)ncn1-c1ncc(C(F)(F)F)cc1Cl | 71 °C
COC(=O)Nc1cc(-c2nc(-c3ccco3)no2)ccc1Cl | 200 to 201 °C
Clc1cc(Cl)c2nc(SCc3ccccc3)nn2c1 | 115 to 116 °C
Cc1cc(C(F)(C(F)(F)F)C(F)(F)F)ccc1N1C(=O)c2cccc(Cl)c2C1NC(C)(C)CS(C)(=O)=O (stereo unspecified) | 154 to 156 °C
Clc1ccccc1-c1nc(Cl)c2ccccc2n1 | 127 to 129 °C
CN1CCCCC1CCc1ccccc1NC(=O)c1ccc(O)cc1 (stereo unspecified) | 178 to 182 °C
O=C(O)CCc1conc1-c1ccc(C(F)(F)F)cc1 | 173 to 174 °C
FC(F)(F)c1cccc(C2=NOC(CNC(=S)N3CCOCC3)C2)c1 (stereo unspecified) | 118 to 120 °C
O=C(CC1CCCCC1=O)c1ccc(Br)cc1 (stereo unspecified) | 78 to 80 °C
Cc1cccc2ncc(-c3nnnn3C)c(=O)n12 | 232 to 234 °C
O=[N+]([O-])c1ccc2c(ccn2-c2cccnc2)c1 | 164 to 165 °C
Cc1ccc(-n2nc(C)c(CC(=O)O)c2C)cc1 | 119 to 121 °C

Compound | melting point
S=C=Nc1ccc2nccnc2c1Br | 157 to 158 °C
CC(C)OC(=O)c1cc(NC(=O)C(C)(C)C)c(F)cc1Cl | 81 to 83 °C
COC(=O)c1cc2nccnc2cc1N | 180 to 182 °C
CNc1nc(NS(=O)(=O)c2ccc(N)cc2)cc(N(C)C)n1 | > 300 °C
CCN1CC(=O)N(c2cc(Cl)ccc2OC)C1=S | 171 to 174 °C
COC(=O)CCc1nc(C(=O)OC)ccc1OC | 98 to 100 °C
Cc1nc(O)c(Br)cc1Br | > 225 °C
Cn1nc2nc(C(C)(C)C)[nH]c(=O)c2c1N=Cc1ccccc1 | 250 to 253 °C
C=C(C)C(=O)Nc1ccc2ccc(Cl)nc2n1 | 182 °C
CCCCCCCCCCCCC1(CCCCCCCCCCCC)c2cc(Br)ccc2-c2ccc(Br)cc21 | 49 to 50 °C
CN1C(=O)CC[C@]2(C)c3ccc(-c4cccc(F)c4F)cc3CC[C@@H]12 | 147 to 148 °C
CC(C)(C)c1ccc(OCCC(=O)O)c(C(C)(C)C)c1 | 105 to 106 °C
Fc1cccc2c(CCc3ccsc3)ccnc12 | 96 to 97 °C
CN1CCCCC1Cn1nc(-c2c(-c3ccccc3)nn3ccccc23)ccc1=O (stereo unspecified) | 154 to 155 °C
COC(=O)c1ncc(C)cc1S(N)(=O)=O | 86 to 88 °C
CC(C)C[C@H](NC(=O)C(S)[C@@H](N)Cc1ccccc1)C(=O)O (stereo partly specified) | 96 to 105 °C
O=C(N=c1sc2cc(OC(F)(F)F)ccc2n1CCCO)C(F)(F)F | 144 °C
C=CCOc1cccc(N2C(=O)C3=C(CCCC3)C2=O)c1 | 88 to 90 °C
CC(C)NC(=O)N1CCc2cc(S(=O)(=O)N3CC(c4ccccc4)NC3=O)ccc21 (stereo unspecified) | 120 to 122 °C
CCOC(=O)CCn1cc(CN(C)C)n(C2CCc3ccccc3C2)c1=S (stereo unspecified) | 128 to 130 °C

Now from value to compound:

melting point | Compound
80 °C | COC(=O)C1Cc2c(OC)cccc2N1S(=O)(=O)c1ccc(-c2ccc(F)cc2Cl)cc1 (stereo unspecified)
133 °C | CC(C)(C)OC(=O)N1CC[C@@H](CN(Cc2ccccc2)Cc2ccccc2)[C@H](O)C1 (relative stereo)
167 to 168 °C | CC(=O)Oc1ccc(C=CC(=O)C=Cc2ccc(OC(C)=O)cc2)cc1
118 to 120 °C | NC(=NCC(F)(F)F)Nc1ccnc(OCCCc2ccccn2)n1
57 to 62 °C | COC(OC)C(C)Nc1cc(OCc2ccccc2)ccc1[N+](=O)[O-] (stereo unspecified)
228 °C | O=C(Nc1ccncc1)c1ccc(OC(F)F)c2oc3ccc(C(F)(F)F)cc3c12
78 to 87 °C | COC(=O)c1ccc(CNC(=O)C2Cc3ccccc3N2S(=O)(=O)c2ccc(-c3cccc(C(F)(F)F)c3)cc2)c(Cl)c1 (stereo unspecified)
132 °C | CCCOc1c(-c2ccccc2)n[nH]c1-c1ccccc1
166 to 169 °C | O=C(O)Cc1ccc(Oc2ccc3c(c2)S(=O)(=O)NC2CCCN32)cc1 (stereo unspecified)
162 to 163 °C | CCCCc1nc(Cl)c(CO)n1Cc1ccc(-c2cccc(C(=O)OC)c2)cc1
200 to 202 °C | COc1ccc(-c2nc3ccc(OC(F)(F)F)cc3[nH]2)cc1
49 °C | C=C(C)C(=O)OCCCOc1ccc(-c2cc(OC(=O)C(=C)C)cc(-c3ccc(OCCCOC(=O)C(=C)C)cc3)c2)cc1
227 to 229 °C | Cc1c(-c2ccc(O)c(Cl)c2)sc(C=O)c1-c1ccc(O)c(F)c1
192 to 194 °C | Cn1c(COc2ccc(CC3SC(=O)NC3=O)cc2)nc2ccc(Oc3cccc(NC(=O)Nc4ccc(C(F)(F)F)cc4)c3)cc21 (stereo unspecified)
133 to 134 °C | CC(C)(C)OC(=O)N[C@H](Cc1ccccc1)C(=O)NCC(=O)OCc1ccccc1
82 to 84 °C | O=C(NCc1ccc(Br)cc1F)OCc1ccccc1

melting point | Compound
157 to 158 °C | Nc1cc(Oc2ccc(Oc3cc(N)cc(C(F)(F)F)c3)cc2)cc(C(F)(F)F)c1
169 to 171 °C | CCC1c2cccn2-c2ccc(C(F)(F)F)cc2N1S(=O)(=O)c1ccc(O)c(Cl)c1 (stereo unspecified)
164 °C | O=C(Cc1cccs1)Nc1cccc2nc(N[C@@H]3CCc4ccccc43)ccc12
161 °C | CC(=O)OC1CSC(Oc2cccnc2Br)C(OC(C)=O)C1OC(C)=O (stereo unspecified)
122 °C | CC(C)N(Cc1cccs1)S(=O)(=O)N[C@@H](Cc1ccc(NC(=O)c2cc(Cl)cc(Cl)c2)cc1)C(=O)O
157 to 158 °C | O=C1C(c2ccccc2)=C(c2ccccc2)C(=O)N1c1cccc(F)c1
339 to 341 °C | O=C(O)CN1C(=O)c2cccc3c(Sc4ccccc4C(=O)O)ccc(c23)C1=O
192 to 193 °C | N#Cc1ccc(NC(=O)c2ccc(-n3nc(C(F)(F)F)cc3C(F)(F)F)cc2)cc1
150 to 152 °C | COc1ccc(C2=NN(C3CCN(S(=O)(=O)c4cccc(C)c4)CC3)C(=O)C(C)(C)C2)cc1OC
118 to 119 °C | Cc1ccc(Oc2ccc(C#N)cc2)c(O)c1
91 to 92 °C | CCCc1cc(Cn2c(=O)ccc3c(CC)nc(CC)cc32)ccc1Oc1ccccc1CC(=O)OC
76 °C | C[C@@H](NC(=CC(=O)OC(C)(C)C)Cc1cc(F)c(F)cc1F)c1ccccc1
112 to 115 °C | CCCCCN1C(=O)CC(c2ccc(C(F)(F)F)cc2)C(C(=O)OCC)C1=O (stereo unspecified)
262 to 264 °C | CC1C(C/C=C/c2ccccc2)C(=O)N(Cc2ccccc2)c2ccccc2N1C(=O)CN1C(=O)c2ccccc2C1=O (stereo unspecified)
58 to 60 °C | Cc1ncccc1NC(=NC#N)NC(NC(=O)Cc1ccc(F)c(F)c1)C(C)(C)C (stereo unspecified)
